Measured values as given in a compilation of properties of binary mixtures (doi:10.1016/j.molliq.2016.09.077).

Assay: xn = mol fraction of the nth substance listed
Settings: 100 kPa

CC[n+]1ccn(C)c1.O=S(=O)([N-]S(=O)(=O)C(F)(F)F)C(F)(F)F + CO
Settings	speed of sound [m/s]	viscosity [mPa·s]
298.15 K, x2 = 0	1240.2	32.49
298.15 K, x2 = 0.0938	1236.3	26.33
298.15 K, x2 = 0.1965	1231.5	20.39
298.15 K, x2 = 0.2889	1225.3	15.83
298.15 K, x2 = 0.4005	1217.3	11.82
298.15 K, x2 = 0.5088	1207.8	8.77
298.15 K, x2 = 0.6909	1177.9	4.64
298.15 K, x2 = 0.7961	1159.9	2.86
298.15 K, x2 = 0.8978	1132.9	1.55
303.15 K, x2 = 0	1229.3	27.68
303.15 K, x2 = 0.0938	1225.2	22.39
303.15 K, x2 = 0.1965	1220.1	17.79
303.15 K, x2 = 0.2889	1214.2	13.73
303.15 K, x2 = 0.4005	1206.3	10.47
303.15 K, x2 = 0.5088	1196.7	7.7
303.15 K, x2 = 0.5988	1183.4	5.82
303.15 K, x2 = 0.6909	1166.9	4.25
303.15 K, x2 = 0.7961	1147.4	2.61
303.15 K, x2 = 0.8978	1120.1	1.43
308.15 K, x2 = 0	1218.5	23.29
308.15 K, x2 = 0.0938	1214.6	19.27
308.15 K, x2 = 0.1965	1208.9	15.16
308.15 K, x2 = 0.2889	1203.2	12.01
308.15 K, x2 = 0.5088	1185.5	6.82
308.15 K, x2 = 0.5988	1172.4	5.22
308.15 K, x2 = 0.6909	1154.9	3.84
308.15 K, x2 = 0.7961	1135.5	2.37
313.15 K, x2 = 0	1207.9	20.16
313.15 K, x2 = 0.0938	1203.9	16.71
313.15 K, x2 = 0.1965	1197.9	13.25
313.15 K, x2 = 0.2889	1192.3	10.57
313.15 K, x2 = 0.5988	1161.2	4.65
313.15 K, x2 = 0.7961	1122.7	2.16
313.15 K, x2 = 0.8978	1094.6	1.22
318.15 K, x2 = 0	1197.3	17.48
318.15 K, x2 = 0.0938	1193.3	14.63
318.15 K, x2 = 0.2889	1181.6	9.38
318.15 K, x2 = 0.4005	1173.4	7.26
318.15 K, x2 = 0.5088	1163.5	5.47
318.15 K, x2 = 0.5988	1150.2	4.22
318.15 K, x2 = 0.6909	1131.2	3.13
318.15 K, x2 = 0.7961	1110.4	1.98
318.15 K, x2 = 0.8978	1082	1.13
323.15 K, x2 = 0	1187	15.34
323.15 K, x2 = 0.0938	1182.8	12.94
323.15 K, x2 = 0.1965	1176.2	10.42
323.15 K, x2 = 0.2889	1170.9	8.38
323.15 K, x2 = 0.4005	1162.8	6.56
323.15 K, x2 = 0.5088	1152.6	4.94
323.15 K, x2 = 0.5988	1139.3	3.86
323.15 K, x2 = 0.6909	1119.6	2.87
323.15 K, x2 = 0.8978	1069.4	1.05

CC[n+]1ccn(C)c1.O=S(=O)([N-]S(=O)(=O)C(F)(F)F)C(F)(F)F + CCOC(C)=O
Settings	speed of sound [m/s]	viscosity [mPa·s]
298.15 K, x2 = 0	1240.2	32.49
298.15 K, x2 = 0.0986	1232.6	25
298.15 K, x2 = 0.1858	1225.5	20.15
298.15 K, x2 = 0.2977	1215.3	14.83
298.15 K, x2 = 0.3962	1203.4	10.88
298.15 K, x2 = 0.5051	1189.2	7.63
298.15 K, x2 = 0.5961	1180.3	5.44
298.15 K, x2 = 0.6909	1171.1	3.77
298.15 K, x2 = 0.7974	1158.2	2.24
298.15 K, x2 = 0.8979	1147.7	0.93
303.15 K, x2 = 0	1229.3	27.68
303.15 K, x2 = 0.0986	1221.4	21.28
303.15 K, x2 = 0.1858	1213.9	17.32
303.15 K, x2 = 0.5051	1175.9	6.47
303.15 K, x2 = 0.6909	1155.8	3.31
308.15 K, x2 = 0.0986	1210.4	18.31
308.15 K, x2 = 0.1858	1202.6	14.96
308.15 K, x2 = 0.3962	1178.5	8.3
308.15 K, x2 = 0.5051	1162.7	5.78
308.15 K, x2 = 0.5961	1151.7	4.15
308.15 K, x2 = 0.6909	1139.5	2.78
308.15 K, x2 = 0.7974	1123.4	1.63
308.15 K, x2 = 0.8979	1109	0.83
313.15 K, x2 = 0	1207.9	20.16
313.15 K, x2 = 0.0986	1199.5	15.97
313.15 K, x2 = 0.1858	1191.4	13.01
313.15 K, x2 = 0.2977	1179.8	9.91
313.15 K, x2 = 0.5961	1137.9	3.71
313.15 K, x2 = 0.6909	1124.4	2.48
313.15 K, x2 = 0.7974	1106.4	1.47
313.15 K, x2 = 0.8979	1089.8	0.8
318.15 K, x2 = 0	1197.3	17.48
318.15 K, x2 = 0.0986	1188.6	14
318.15 K, x2 = 0.2977	1168.3	8.8
318.15 K, x2 = 0.5961	1123.8	3.27
318.15 K, x2 = 0.6909	1109.4	2.3
318.15 K, x2 = 0.7974	1089.2	1.29
323.15 K, x2 = 0	1187	15.34
323.15 K, x2 = 0.0986	1178.9	12.36
323.15 K, x2 = 0.1858	1169.7	10.19
323.15 K, x2 = 0.2977	1156.8	7.87
323.15 K, x2 = 0.3962	1142.5	5.82
323.15 K, x2 = 0.5051	1124	3.9
323.15 K, x2 = 0.5961	1110	2.94
323.15 K, x2 = 0.7974	1071.9	1.16
323.15 K, x2 = 0.8979	1051.6	0.7

CCOC(C)=O + CC[n+]1ccn(C)c1.O=S(=O)([N-]S(=O)(=O)C(F)(F)F)C(F)(F)F
x1 = 1
Settings	speed of sound [m/s]	viscosity [mPa·s]
298.15 K	1140.8	0.42
308.15 K	1096	0.38
313.15 K	1073.7	0.36
318.15 K	1051.7	0.35
323.15 K	1029.5	0.33

CO + CC[n+]1ccn(C)c1.O=S(=O)([N-]S(=O)(=O)C(F)(F)F)C(F)(F)F
x1 = 1
Settings	speed of sound [m/s]	viscosity [mPa·s]
303.15 K	1086.9	0.51
313.15 K	1054.5	0.45
323.15 K	1022.5	0.41
